Structures can show the parent of a compound that is named as a salt.

Data on one molecule can be found in patent US20090163540A1, “Quinine Sulfate Polymorphs, Processes of Preparing, Compositions and Uses Thereof” (priority 2007, published 2009).

Data set [1] is described as follows: Moisture balance (moisture sorption/desorption, 5% to 95% RH) with post-MB XRPD. Format: physicochemical. On the procedure:
In addition to XRPD, quinine sulfate polymorph A is analyzed by DSC, TGA, moisture balance (MB), post-MB XRPD, hotstage microscopy (HSM), Karl Fischer (KF) and variable temperature X-ray powder diffraction (VT-XRPD); a summary of the analyses is provided in Table 11b. Moisture sorption/desorption data are collected on a VTI SGA-100 Vapor Sorption Analyzer. Sorption and desorption data are collected over a range of 5% to 95% relative humidity (RH) at 10% RH intervals. Samples are not dried prior to analysis. Equilibrium criteria used for analysis are less than 0.0100% weight change in 5 minutes, with a maximum equilibration time of 3 hours if the weight criterion is not met. Data are not corrected for the initial moisture content of the samples. Sodium chloride and polyvinylpyrrolidone are used as calibration standards.

Data set [2] in a line: Variable-temperature XRPD (solid form on heating). The format is physicochemical. On the procedure:
In addition to XRPD, quinine sulfate polymorph A is analyzed by DSC, TGA, moisture balance (MB), post-MB XRPD, hotstage microscopy (HSM), Karl Fischer (KF) and variable temperature X-ray powder diffraction (VT-XRPD); a summary of the analyses is provided in Table 11b. Variable-temperature XRPD is performed on a Shimadzu XRD-6000 X-ray powder diffractometer equipped with an Anton Paar HTK 1200 high temperature stage. The sample is packed in a ceramic holder and analyzed from 2.5 to 40 °2θ at 3°/min (0.4 sec/0.02° step). A silicon standard is analyzed to check the instrument alignment. Temperature calibration is performed using vanillin and sulfapyridine standards. Data are collected and analyzed using XRD-6000 v. 4.1.

As to `C=C[C@H]1C[N@@]2CC[C@H]1C[C@H]2[C@H](O)c1ccnc2ccc(OC)cc12` [Form A, quinine sulfate], the “post-MB XRPD form” value in data set [1] (solid form after moisture balance) is given as “Form A”. Further, the “MB (moisture balance) result” value in data set [1] (sorption/desorption 5% to 95% RH at 10% RH intervals) is given as “non-hygroscopic”. For the same molecule, the VT-XRPD form in data set [2] (40° C. (listed after 110° C.)) was 40° C.: Form A; in data set [2] (50° C.) it was 50° C.: Form A; in data set [2] (75° C.) it was 75° C.: Form A; in data set [2] (110° C.) it was 110° C.: Pattern D; in data set [2] (ambient temp), “ambient temp: Form A”.
